Data: ChEMBL document CHEMBL5528002, “Identification of selective 5-LOX and FLAP inhibitors as novel anti-inflammatory agents by ligand-based virtual screening” (Eur J Med Chem, 2024)
The source made the active and inactive calls. No cut-off for these calls is given here.

Columns and labels:
[1] = system: Macrophage cell line; assay: Effect on lipid mediator formation in human M1-like phenotype MDM cells by measuring 5S,6R-diHETE formation at 10 uM pre-incubated for 15 mins followed by SACM stimulation and measured after 90 mins by UPLC-MS/MS analysis relative to control; assay type: functional; settings: time 105 min, 1.75 h
[2] = molecular target: T1, Bifunctional epoxide hydrolase 2 (Homo sapiens) (UniProt P34913); assay: Inhibition of human sEH assessed as enzyme remaining activity at 10 uM relative to control
T1 sequence (whole entry): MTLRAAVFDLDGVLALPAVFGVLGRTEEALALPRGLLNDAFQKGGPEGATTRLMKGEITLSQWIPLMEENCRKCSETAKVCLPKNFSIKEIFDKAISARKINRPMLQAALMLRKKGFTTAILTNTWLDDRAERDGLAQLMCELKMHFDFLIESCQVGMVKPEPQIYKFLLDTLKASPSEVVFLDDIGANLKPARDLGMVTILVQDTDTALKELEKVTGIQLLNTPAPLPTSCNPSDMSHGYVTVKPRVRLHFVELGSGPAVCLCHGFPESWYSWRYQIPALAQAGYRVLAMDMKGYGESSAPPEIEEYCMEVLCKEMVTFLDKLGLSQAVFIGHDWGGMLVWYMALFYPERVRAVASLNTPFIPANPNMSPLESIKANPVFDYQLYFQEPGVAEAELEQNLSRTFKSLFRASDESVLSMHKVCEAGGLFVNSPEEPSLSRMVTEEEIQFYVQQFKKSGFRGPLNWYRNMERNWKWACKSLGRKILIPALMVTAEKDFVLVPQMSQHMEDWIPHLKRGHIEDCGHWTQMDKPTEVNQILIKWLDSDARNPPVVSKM

[3] = system: Macrophage cell line; assay: Effect on lipid mediator formation in human M1-like phenotype MDM cells by measuring PGD2 formation at 10 uM pre-incubated for 15 mins followed by SACM stimulation and measured after 90 mins by UPLC-MS/MS analysis relative to control; assay type: functional; settings: time 105 min, 1.75 h
[4] = system: Macrophage cell line; assay: Effect on lipid mediator formation in human M2-like phenotype MDM cells by measuring RvD1 formation at 10 uM pre-incubated for 15 mins followed by SACM stimulation and measured after 90 mins by UPLC-MS/MS analysis (reference value: 5 +/- 2 pg/ml); assay type: functional; settings: time 105 min, 1.75 h
[5] = system: Macrophage cell line; assay: Effect on lipid mediator formation in human M2-like phenotype MDM cells by measuring arachidonic acid formation at 10 uM pre-incubated for 15 mins followed by SACM stimulation and measured after 90 mins by UPLC-MS/MS analysis (reference value: 92007 +/- 4892 pg/ml); assay type: functional; settings: time 105 min, 1.75 h
[6] = system: Macrophage cell line; assay: Effect on lipid mediator formation in human M1-like phenotype MDM cells by measuring 14-HDHA formation at 10 uM pre-incubated for 15 mins followed by SACM stimulation and measured after 90 mins by UPLC-MS/MS analysis relative to control; assay type: functional; settings: time 105 min, 1.75 h
[7] = system: Macrophage cell line; assay: Effect on lipid mediator formation in human M2-like phenotype MDM cells by measuring 5,15-diHETE formation at 10 uM pre-incubated for 15 mins followed by SACM stimulation and measured after 90 mins by UPLC-MS/MS analysis relative to control; assay type: functional; settings: time 105 min, 1.75 h
[8] = molecular target: T2, Polyunsaturated fatty acid 5-lipoxygenase (Homo sapiens) (UniProt P09917); assay: Inhibition of 5-LOX in human Neutrophil at 10 uM using arachidonic acid as substrate preincubated with compound for 15 mins followed by substrate and A23187 addition measured after 10 mins by RP-HPLC analysis relative to control; assay type: cell-based; settings: time 25.0 min
T2 sequence (whole entry): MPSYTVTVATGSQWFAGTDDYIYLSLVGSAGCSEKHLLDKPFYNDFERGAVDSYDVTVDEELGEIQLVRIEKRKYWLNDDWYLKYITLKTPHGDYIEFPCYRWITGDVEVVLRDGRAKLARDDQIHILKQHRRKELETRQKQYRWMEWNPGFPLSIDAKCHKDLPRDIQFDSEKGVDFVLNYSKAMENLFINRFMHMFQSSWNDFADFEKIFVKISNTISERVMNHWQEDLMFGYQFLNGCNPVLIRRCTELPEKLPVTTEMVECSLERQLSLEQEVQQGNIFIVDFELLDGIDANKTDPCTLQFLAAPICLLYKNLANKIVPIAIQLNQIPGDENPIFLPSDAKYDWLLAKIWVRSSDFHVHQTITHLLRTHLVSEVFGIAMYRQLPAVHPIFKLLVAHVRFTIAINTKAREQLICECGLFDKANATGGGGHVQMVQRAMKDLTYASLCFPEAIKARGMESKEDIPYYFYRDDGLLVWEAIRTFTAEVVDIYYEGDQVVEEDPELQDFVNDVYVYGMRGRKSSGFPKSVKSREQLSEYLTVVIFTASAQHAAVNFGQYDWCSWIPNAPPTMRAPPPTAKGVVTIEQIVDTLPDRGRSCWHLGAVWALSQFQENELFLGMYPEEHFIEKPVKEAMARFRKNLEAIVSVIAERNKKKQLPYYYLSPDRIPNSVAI

[9] = system: Macrophage cell line; assay: Effect on lipid mediator formation in human M2-like phenotype MDM cells by measuring 14-HDHA formation at 10 uM pre-incubated for 15 mins followed by SACM stimulation and measured after 90 mins by UPLC-MS/MS analysis (reference value: 1517 +/- 298 pg/ml); assay type: functional; settings: time 105 min, 1.75 h
[10] = molecular target: T3, Polyunsaturated fatty acid 5-lipoxygenase (Homo sapiens, UniProt P09917); assay: Inhibition of 5-LOX in human Neutrophil preincubated with compound for 15 mins followed by A23187 addition measured after 10 mins by RP-HPLC analysis; assay type: cell-based
T3 sequence (P09917 whole entry): T2 sequence (whole entry)

[11] = system: Macrophage cell line; assay: Effect on lipid mediator formation in human M1-like phenotype MDM cells by measuring t-LTB4 formation at 10 uM pre-incubated for 15 mins followed by SACM stimulation and measured after 90 mins by UPLC-MS/MS analysis (reference value: 338 +/- 102 pg/ml); assay type: functional; settings: time 105 min, 1.75 h
[12] = Antioxidant activity assessed as DPPH radical scavenging activity at 1 uM incubated for 30 min by DPPH assay; assay type: functional
[13] = system: Macrophage cell line; assay: Effect on lipid mediator formation in human M1-like phenotype MDM cells by measuring PGF2alpha formation at 10 uM pre-incubated for 15 mins followed by SACM stimulation and measured after 90 mins by UPLC-MS/MS analysis relative to control; assay type: functional; settings: time 105 min, 1.75 h
[14] = system: Macrophage cell line; assay: Effect on lipid mediator formation in human M2-like phenotype MDM cells by measuring 5-HEPE formation at 10 uM pre-incubated for 15 mins followed by SACM stimulation and measured after 90 mins by UPLC-MS/MS analysis (reference value: 299 +/- 20 pg/ml); assay type: functional; settings: time 105 min, 1.75 h
[15] = system: Macrophage cell line; assay: Effect on lipid mediator formation in human M2-like phenotype MDM cells by measuring PGE2 formation at 10 uM pre-incubated for 15 mins followed by SACM stimulation and measured after 90 mins by UPLC-MS/MS analysis relative to control; assay type: functional; settings: time 105 min, 1.75 h
[16] = system: Macrophage cell line; assay: Effect on lipid mediator formation in human M2-like phenotype MDM cells by measuring 12-HEPE formation at 10 uM pre-incubated for 15 mins followed by SACM stimulation and measured after 90 mins by UPLC-MS/MS analysis relative to control; assay type: functional; settings: time 105 min, 1.75 h
[17] = system: Macrophage cell line; assay: Effect on lipid mediator formation in human M2-like phenotype MDM cells by measuring DHA formation at 10 uM pre-incubated for 15 mins followed by SACM stimulation and measured after 90 mins by UPLC-MS/MS analysis relative to control; assay type: functional; settings: time 105 min, 1.75 h

Oc1ccc(CCC2CCC(c3ccc(O)cc3)CO2)cc1 (centres undefined)
Activity [1]: 5%
Activity [2]: 103%
Activity [3]: 88%
Activity [4]: 4 pg/mL
Activity [5]: 103809 pg/mL
Activity [6]: 89%
Activity [7]: 61%
inhibition [8]: > 50%
Activity [9]: 2101 pg/mL
IC50 [10]: 1.1 µM
Activity [11]: 29 pg/mL
Activity [12]: inactive
Activity [13]: 70%
Activity [14]: 102 pg/mL
Activity [15]: 147%
Activity [16]: 128%
Activity [17]: 107%

COc1ccc(C2=C/C(=C/c3ccc(O)cc3O)C(=O)O2)cc1
Activity [1]: 5%
Activity [2]: 71.5%
Activity [3]: 157%
Activity [4]: 6 pg/mL
Activity [5]: 94519 pg/mL
Activity [6]: 94%
Activity [7]: 39%
inhibition [8]: > 50%
Activity [9]: 2718 pg/mL
IC50 [10]: 4.8 µM
Activity [11]: 28 pg/mL
Activity [12]: inactive
Activity [13]: 89%
Activity [14]: 55 pg/mL
Activity [15]: 259%
Activity [16]: 144%
Activity [17]: 106%
